Like-named read-outs stand apart in the source and are kept apart here.
Tests used:
human Gal-1 (hGal-1) = human Gal-1 (hGal-1) (Homo sapiens (Human), UniProt P09382); assay: competitive binding assay: biotinylated hGal-1 binding to microplate-adsorbed asialofetuin (ASF); settings: Table 15; read-out: IC50 (Galectin-1 inhibition)
Method in brief: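 Spectrophotometric competition readout: after compound and biotinylated hGal-1 (300-1000 ng/mL) sit 3 h at 4° C on adsorbed asialofetuin, streptavidin-peroxidase (1 h, 4° C) and ABTS reveal residual binding. Reported IC50 values are means of repeat runs.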

human Gal-3 (hGal-3) = human Gal-3 (hGal-3) (Homo sapiens (Human), UniProt P17931); assay: competitive binding assay: biotinylated hGal-3 binding to microplate-adsorbed asialofetuin (ASF)
Method in brief: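 Serial DMSO dilutions of each compound; binding incubation of 3 hours at 4 °C with cold-buffer washes; detection using 80 ng/mL streptavidin-peroxidase for 1 hour, then ABTS. Multiple determinations were averaged to give the IC50.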

[1] = Table 5, read-out: IC50 (Gal-3 inhibition)
[2] = Gal-3 inhibition, binding of biotinylated hGal-3 to ASF, mean values, read-out: IC50

Chain of human Gal-1 (hGal-1) (P09382 whole entry): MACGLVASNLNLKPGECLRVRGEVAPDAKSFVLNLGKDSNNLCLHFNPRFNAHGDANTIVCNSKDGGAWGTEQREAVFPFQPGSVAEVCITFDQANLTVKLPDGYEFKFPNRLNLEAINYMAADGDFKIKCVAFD
Chain of human Gal-3 (hGal-3) (P17931 whole entry): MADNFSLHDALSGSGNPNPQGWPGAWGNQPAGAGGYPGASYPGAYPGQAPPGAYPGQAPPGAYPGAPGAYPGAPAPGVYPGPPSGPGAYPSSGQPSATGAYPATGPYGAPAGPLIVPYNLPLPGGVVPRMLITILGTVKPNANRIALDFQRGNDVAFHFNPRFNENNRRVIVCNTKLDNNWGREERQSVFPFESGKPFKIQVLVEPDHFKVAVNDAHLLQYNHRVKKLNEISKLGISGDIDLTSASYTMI

| Compound | IC50 (human Gal-1 (hGal-1)) [µM] | IC50 (human Gal-3 (hGal-3); [1]) [µM] | IC50 (human Gal-3 (hGal-3); [2]) [µM] |
| --- | --- | --- | --- |
| Cc1noc(C2CC2)c1C(S[C@@H]1O[C@H](CO)[C@H](O)[C@H](n2cc(-c3cc(F)c(F)c(F)c3)nn2)[C@H]1O)C1(O)CCCCC1 (stereo partly drawn) [Example 2.39.128., (2S,3R,4S,5R,6R)-2-(((5-Cyclopropyl-3-methylisoxazol-4-yl)(1-hydroxycyclohexyl)methyl)thio)-6-(hydroxymethyl)-4-(4-(3,4,5-trifluorophenyl)-1H-1,2,3-triazol-1-yl)tetrahydro-2H-pyran-3,5-diol] | 1.11 | 0.21 |  |
| Cc1noc(C2CC2)c1[C@H](S[C@@H]1O[C@H](CO)[C@H](O)[C@H](n2cc(-c3cc(F)c(F)c(F)c3)nn2)[C@H]1O)C1(O)CCCCC1 [Example 2.39.128S., (2S,3R,4S,5R,6R)-2-(((S)-(5-Cyclopropyl-3-methylisoxazol-4-yl)(1-hydroxycyclohexyl)methyl)thio)-6-(hydroxymethyl)-4-(4-(3,4,5-trifluorophenyl)-1H-1,2,3-triazol-1-yl)tetrahydro-2H-pyran-3,5-diol] | 23.2 | 3.21 |  |
| Cc1ccccc1C(S[C@@H]1O[C@H](CO)[C@H](O)[C@H](n2cc(-c3cc(F)c(F)c(F)c3)nn2)[C@H]1O)C1(O)CCN(C)CC1 (stereo partly drawn) [Example 2.40.102., (2S,3R,4S,5R,6R)-2-(((4-Hydroxy-1-methylpiperidin-4-yl)(o-tolyl)methyl)thio)-6-(hydroxymethyl)-4-(4-(3,4,5-trifluorophenyl)-1H-1,2,3-triazol-1-yl)tetrahydro-2H-pyran-3,5-diol] | 0.73 | 0.09 |  |
| CN1CCC(O)([C@H](S[C@@H]2O[C@H](CO)[C@H](O)[C@H](n3cc(-c4cc(F)c(F)c(F)c4)nn3)[C@H]2O)c2ccccc2C(F)(F)F)CC1 [Example 2.40.112R., (2S,3R,4S,5R,6R)-2-(((R)-(4-Hydroxy-1-methylpiperidin-4-yl)(2-(trifluoromethyl)phenyl)methyl)thio)-6-(hydroxymethyl)-4-(4-(3,4,5-trifluorophenyl)-1H-1,2,3-triazol-1-yl)tetrahydro-2H-pyran-3,5-diol] | 0.15 | 0.06 |  |
| CN1CCC(O)([C@@H](S[C@@H]2O[C@H](CO)[C@H](O)[C@H](n3cc(-c4cc(F)c(F)c(F)c4)nn3)[C@H]2O)c2ccccc2C(F)(F)F)CC1 [Example 2.40.112S., (2S,3R,4S,5R,6R)-2-(((S)-(4-Hydroxy-1-methylpiperidin-4-yl)(2-(trifluoromethyl)phenyl)methyl)thio)-6-(hydroxymethyl)-4-(4-(3,4,5-trifluorophenyl)-1H-1,2,3-triazol-1-yl)tetrahydro-2H-pyran-3,5-diol] | 21.7 | 3.95 |  |
| CN1CCC(O)([C@@H](S[C@@H]2O[C@H](CO)[C@H](O)[C@H](n3cc(-c4cc(F)c(F)c(F)c4)nn3)[C@H]2O)c2ncccc2C(F)(F)F)CC1 [Example 2.40.125S., (2S,3R,4S,5R,6R)-2-(((S)-(4-Hydroxy-1-methylpiperidin-4-yl)(3-(trifluoromethyl)pyridin-2-yl)methyl)thio)-6-(hydroxymethyl)-4-(4-(3,4,5-trifluorophenyl)-1H-1,2,3-triazol-1-yl)tetrahydro-2H-pyran-3,5-diol] | 11.2 | 3.65 |  |

Further lines, results first:

| IC50 (human Gal-1 (hGal-1)) [µM] | IC50 (human Gal-3 (hGal-3); [1]) [µM] | IC50 (human Gal-3 (hGal-3); [2]) [µM] | Compound |
| --- | --- | --- | --- |
| 21.8 | 3 |  | OC[C@H]1O[C@@H](S[C@@H](c2ncccc2C(F)(F)F)C2(O)CCCCC2)[C@H](O)[C@@H](n2cc(-c3cc(F)c(F)c(F)c3)nn2)[C@H]1O [Example 2.39.125S., (2S,3R,4S,5R,6R)-2-(((S)-(1-Hydroxycyclohexyl)(3-(trifluoromethyl)pyridin-2-yl)methyl)thio)-6-(hydroxymethyl)-4-(4-(3,4,5-trifluorophenyl)-1H-1,2,3-triazol-1-yl)tetrahydro-2H-pyran-3,5-diol] |
| 1.03 | 0.19 |  | Cc1noc(C2CC2)c1[C@@H](S[C@@H]1O[C@H](CO)[C@H](O)[C@H](n2cc(-c3cc(F)c(F)c(F)c3)nn2)[C@H]1O)C1(O)CCCCC1 [Example 2.39.128R., (2S,3R,4S,5R,6R)-2-(((R)-(5-Cyclopropyl-3-methylisoxazol-4-yl)(1-hydroxycyclohexyl)methyl)thio)-6-(hydroxymethyl)-4-(4-(3,4,5-trifluorophenyl)-1H-1,2,3-triazol-1-yl)tetrahydro-2H-pyran-3,5-diol] |
| 0.42 | 0.13 |  | CN1CCC(O)(C(S[C@@H]2O[C@H](CO)[C@H](O)[C@H](n3cc(-c4cc(F)c(F)c(F)c4)nn3)[C@H]2O)c2ccccc2C(F)(F)F)CC1 (stereo partly drawn) [Example 2.40.112., (2S,3R,4S,5R,6R)-2-(((4-Hydroxy-1-methylpiperidin-4-yl)(2-(trifluoromethyl)phenyl)methyl)thio)-6-(hydroxymethyl)-4-(4-(3,4,5-trifluorophenyl)-1H-1,2,3-triazol-1-yl)tetrahydro-2H-pyran-3,5-diol] |
| 0.27 |  | 0.1 | Cc1nc(C)c(C(S[C@@H]2O[C@H](CO)[C@H](O)[C@H](n3cc(-c4cc(F)c(F)c(F)c4)nn3)[C@H]2O)C2(O)CCN(C)CC2)nc1C (stereo partly drawn) [Example 2.40.119., (2S,3R,4S,5R,6R)-2-(((4-Hydroxy-1-methylpiperidin-4-yl)(3,5,6-trimethylpyrazin-2-yl)methyl)thio)-6-(hydroxymethyl)-4-(4-(3,4,5-trifluorophenyl)-1H-1,2,3-triazol-1-yl)tetrahydro-2H-pyran-3,5-diol] |
| 0.11 |  | 0.05 | Cc1nc(C)c([C@@H](S[C@@H]2O[C@H](CO)[C@H](O)[C@H](n3cc(-c4cc(F)c(F)c(F)c4)nn3)[C@H]2O)C2(O)CCN(C)CC2)nc1C [Example 2.40.119R., (2S,3R,4S,5R,6R)-2-(((R)-(4-Hydroxy-1-methylpiperidin-4-yl)(3,5,6-trimethylpyrazin-2-yl)methyl)thio)-6-(hydroxymethyl)-4-(4-(3,4,5-trifluorophenyl)-1H-1,2,3-triazol-1-yl)tetrahydro-2H-pyran-3,5-diol] |
| 10.8 |  | 3.04 | Cc1nc(C)c([C@H](S[C@@H]2O[C@H](CO)[C@H](O)[C@H](n3cc(-c4cc(F)c(F)c(F)c4)nn3)[C@H]2O)C2(O)CCN(C)CC2)nc1C [Example 2.40.119S., (2S,3R,4S,5R,6R)-2-(((S)-(4-Hydroxy-1-methylpiperidin-4-yl)(3,5,6-trimethylpyrazin-2-yl)methyl)thio)-6-(hydroxymethyl)-4-(4-(3,4,5-trifluorophenyl)-1H-1,2,3-triazol-1-yl)tetrahydro-2H-pyran-3,5-diol] |
| 0.53 | 0.2 |  | CN1CCC(O)(C(S[C@@H]2O[C@H](CO)[C@H](O)[C@H](n3cc(-c4cc(F)c(F)c(F)c4)nn3)[C@H]2O)c2ncccc2C(F)(F)F)CC1 (stereo partly drawn) [Example 2.40.125., (2S,3R,4S,5R,6R)-2-(((4-Hydroxy-1-methylpiperidin-4-yl)(3-(trifluoromethyl)pyridin-2-yl)methyl)thio)-6-(hydroxymethyl)-4-(4-(3,4,5-trifluorophenyl)-1H-1,2,3-triazol-1-yl)tetrahydro-2H-pyran-3,5-diol] |
| 0.04 | 0.02 |  | CN1CCC(O)([C@H](S[C@@H]2O[C@H](CO)[C@H](O)[C@H](n3cc(-c4cc(F)c(F)c(F)c4)nn3)[C@H]2O)c2ncccc2C(F)(F)F)CC1 [Example 2.40.125R., (2S,3R,4S,5R,6R)-2-(((R)-(4-Hydroxy-1-methylpiperidin-4-yl)(3-(trifluoromethyl)pyridin-2-yl)methyl)thio)-6-(hydroxymethyl)-4-(4-(3,4,5-trifluorophenyl)-1H-1,2,3-triazol-1-yl)tetrahydro-2H-pyran-3,5-diol] |

Source: patent US12404295B2, “(Hetero)aryl-methyl-thio-beta-D-galactopyranoside derivatives” (Idorsia Pharmaceuticals Ltd, priority 2019, dated 2025)
